Legend:
MSC = experiment: Survival of MSC under oxygen–glucose-deprived (OGD) condition; assay type: cell-based, human; details: MSC pretreated with DNIC, glucose-free DMEM, 1% oxygen, 48 h
Protocol: Cell viability study of MSC, N2a, and HCEC cells with or without the treatment of DNIC–COOH was performed using a Cell Counting Kit-8 (IMT Formosa New Materials Co., Ltd., Taiwan) according to the manufacturer’s protocol. Briefly, cells were seeded into a 96-well plate at a density of 4 × 10^3 cells/well for MSC, 1 × 10^4 cells/well for N2a, and 8 × 10^3 cells/well for HCEC, respectively, and incubated overnight. On the next day, cells were treated with DNIC–COOH at different concentrations and incubated for 24 h. The culture medium was then removed before the cells were washed with DPBS. After addition of fresh medium containing CCK-8 solution to the cells and incubation for 1–3 h, the absorbance at 450 nm was then measured on a microplate reader (SpectraMax iD3, Molecular Devices, San Jose, CA) with a reference wavelength of 650 nm. Three independent experiments were executed, and the results were represented as mean ± SEM% (n = 3) with the untreated cells (control) as 100% viability. […]
To simulate the microenvironment of ischemic tissues, the MSC cells with or without DNIC priming were cultured using glucose-free DMEM in a humidified hypoxia incubator (1% oxygen; Heracell VIOS 160i, Thermo Fisher Scientific) for 48 h. Cell viability was assessed by live/dead staining or CCK-8 assay.

MSC/N2a/HCEC = experiment: Whole-cell EPR, results stated jointly for MSC/N2a/HCEC; assay type: cell-based; details: for tmax for cellular uptake: stated jointly for MSC/N2a/HCEC
Protocol: Cellular uptake of DNIC–COOH and intracellular formation/decomposition of mononuclear DNICs in MSC/N2a/HCEC cells were investigated using EPR spectroscopy. Briefly, cells were seeded into two (or one) 100 mm dish(es) at a density of 2 × 10^6 cells/dish and incubated at 37 °C overnight. On the next day, cells were treated with 100 μM of DNIC–COOH (or 100 μM of DNIC–COOH to N2a and 75 μM of DNIC–COOH to HCEC) and incubated for 0, 0.5, 1, 2, 3, 4, 8, and 24 h, respectively. After removal of the supernatant solution, cells were washed with DPBS before addition of 1 mL of trypsin (0.05%)/EDTA (0.53 mM) and incubation for 5 min at 37 °C. After the obtained cell suspension solutions from two 100 mm dishes were combined and centrifuged at 100g for 5 min, the supernatant was removed before addition of 100 μL of αMEM to DNIC-treated MSC (or MEM to DNIC-treated N2a and HSFM to DNIC-treated HCEC). This solution was then transferred into EPR quartz tube and frozen in N2(l) before the EPR measurements. For each measured EPR spectrum, double integration was executed to obtain the integrated EPR intensity under each condition. Moreover, time-dependent decay of integrated EPR signal intensity after treatment of DNIC–COOH was fit to pseudo-first-order kinetics in order to determine the intracellular half-life for EPR-active mononuclear DNIC. Three independent experiments were executed to measure the average half-life for intracellular decomposition of EPR-active mononuclear DNIC after treatment with DNIC–COOH at 37 °C. On the other hand, at the time point with maximum integrated EPR signal intensity, spin quantitation of intracellular EPR-active DNICs was performed using mononuclear DNIC [PPN][(NO)2Fe(S5)] as a standard according to the methodology used in the previous work.[50] Cellular uptake of DNIC–COOMe (2.5 μM to MSC, 10 μM to N2a, or 1 μM to HCEC) and intracellular formation/decomposition of EPR-active mononuclear DNICs were investigated using EPR spectroscopy in a similar manner. […]

| SMILES | cell viability under OGD condition (MSC) | tmax for cellular uptake (MSC/N2a/HCEC) [min] | tmax for intracellular assembly of mononuclear DNICs (MSC/N2a/HCEC; MSC/N2a/HCEC, hypoxia) [min] |
| --- | --- | --- | --- |
| O=[N][Fe]1([N]=O)[SH](CCC(=O)O)[Fe]([N]=O)([N]=O)[SH]1CCC(=O)O (centres unmarked) [DNIC–COOH, [(NO)2Fe(μ-SCH2CH2COOH)2Fe(NO)2]] | increase in the number of viable cells | 120 to 480 | – |
| COC(=O)CC[SH]1[Fe]([N]=O)([N]=O)[SH](CCC(=O)OC)[Fe]1([N]=O)[N]=O (centres unmarked) [DNIC–COOMe, [(NO)2Fe(μ-SCH2CH2COOCH3)2Fe(NO)2]] | comparable to that of OGD group | 30 | 30 |
